Source: paper PMC6054832, “Novel pharmacological maps of protein lysine methyltransferases: key for target deorphanization” (Journal of Cheminformatics, 2018)

How the values were obtained:
[1] = target: KMT2A (Homo sapiens, UniProt Q03164); assay: biochemical; parameters: Eurofins radiometric methyltransferase inhibition assay with [3H]SAM and nucleosome, core histone or histone H3 substrate
From the text: (§1) Inhibitory activity assays for prospective validation

[2] = target: T1, SETD2 (Homo sapiens, UniProt Q9BYW2); assay: biochemical; parameters: Eurofins radiometric methyltransferase inhibition assay with [3H]SAM and nucleosome, core histone or histone H3 substrate
From the text: as §1

[3] = target: T2, KMT5C (Homo sapiens, UniProt Q86Y97); assay: biochemical; parameters: Eurofins radiometric methyltransferase inhibition assay with [3H]SAM and nucleosome, core histone or histone H3 substrate
From the text: as §1

[4] = target: T3, NSD2 (Homo sapiens, UniProt O96028); assay: biochemical; parameters: Eurofins radiometric methyltransferase inhibition assay with [3H]SAM and nucleosome, core histone or histone H3 substrate
T3 sequence (O96028 1-1365): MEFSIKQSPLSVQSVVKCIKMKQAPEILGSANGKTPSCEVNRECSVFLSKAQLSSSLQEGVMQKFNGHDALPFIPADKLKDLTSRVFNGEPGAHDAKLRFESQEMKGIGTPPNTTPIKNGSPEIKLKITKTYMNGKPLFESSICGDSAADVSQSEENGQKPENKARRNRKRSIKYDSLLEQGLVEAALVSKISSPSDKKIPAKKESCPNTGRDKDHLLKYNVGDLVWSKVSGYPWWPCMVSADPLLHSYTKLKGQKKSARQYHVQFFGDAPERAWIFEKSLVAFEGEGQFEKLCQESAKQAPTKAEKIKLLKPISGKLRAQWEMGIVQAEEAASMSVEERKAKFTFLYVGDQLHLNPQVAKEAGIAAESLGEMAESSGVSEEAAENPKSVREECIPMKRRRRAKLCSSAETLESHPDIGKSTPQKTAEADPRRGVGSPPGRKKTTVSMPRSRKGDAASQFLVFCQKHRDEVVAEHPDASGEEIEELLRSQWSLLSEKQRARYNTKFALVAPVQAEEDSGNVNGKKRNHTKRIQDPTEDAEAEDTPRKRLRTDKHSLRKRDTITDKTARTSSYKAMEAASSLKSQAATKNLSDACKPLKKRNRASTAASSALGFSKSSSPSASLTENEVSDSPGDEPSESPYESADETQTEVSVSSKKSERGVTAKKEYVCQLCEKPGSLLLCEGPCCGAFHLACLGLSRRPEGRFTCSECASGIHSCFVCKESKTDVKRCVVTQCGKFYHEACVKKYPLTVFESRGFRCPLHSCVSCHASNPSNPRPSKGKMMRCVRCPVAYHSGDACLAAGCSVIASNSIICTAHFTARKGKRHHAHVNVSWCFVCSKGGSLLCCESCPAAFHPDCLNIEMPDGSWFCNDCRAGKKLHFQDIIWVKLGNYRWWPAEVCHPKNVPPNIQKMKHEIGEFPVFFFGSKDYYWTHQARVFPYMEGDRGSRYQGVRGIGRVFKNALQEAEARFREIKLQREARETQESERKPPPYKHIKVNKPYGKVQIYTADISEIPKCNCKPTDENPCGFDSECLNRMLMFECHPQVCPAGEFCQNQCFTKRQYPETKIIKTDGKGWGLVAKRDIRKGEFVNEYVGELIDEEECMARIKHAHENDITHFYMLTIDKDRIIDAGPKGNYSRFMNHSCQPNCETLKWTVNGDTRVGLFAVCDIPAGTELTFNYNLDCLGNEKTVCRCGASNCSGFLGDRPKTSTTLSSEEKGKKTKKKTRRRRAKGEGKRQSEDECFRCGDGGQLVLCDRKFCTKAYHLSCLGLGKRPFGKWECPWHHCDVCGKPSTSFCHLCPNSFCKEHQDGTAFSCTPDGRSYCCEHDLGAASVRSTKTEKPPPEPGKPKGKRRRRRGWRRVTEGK
From the text: as §1

[5] = target: T4, NSD1 (Homo sapiens, UniProt Q96L73); assay: biochemical; parameters: Eurofins radiometric methyltransferase inhibition assay with [3H]SAM and nucleosome, core histone or histone H3 substrate
From the text: as §1

[6] = target: T2, KMT5C; assay: radioactive [3H]SAM methyltransferase assay with nucleosome substrate (Eurofins), […]; format: biochemical
[7] = target: T4, NSD1; assay: as above; format: biochemical
[8] = target: T1, SETD2; assay: as above; format: biochemical

KMT2A, sequence (Q03164 whole entry): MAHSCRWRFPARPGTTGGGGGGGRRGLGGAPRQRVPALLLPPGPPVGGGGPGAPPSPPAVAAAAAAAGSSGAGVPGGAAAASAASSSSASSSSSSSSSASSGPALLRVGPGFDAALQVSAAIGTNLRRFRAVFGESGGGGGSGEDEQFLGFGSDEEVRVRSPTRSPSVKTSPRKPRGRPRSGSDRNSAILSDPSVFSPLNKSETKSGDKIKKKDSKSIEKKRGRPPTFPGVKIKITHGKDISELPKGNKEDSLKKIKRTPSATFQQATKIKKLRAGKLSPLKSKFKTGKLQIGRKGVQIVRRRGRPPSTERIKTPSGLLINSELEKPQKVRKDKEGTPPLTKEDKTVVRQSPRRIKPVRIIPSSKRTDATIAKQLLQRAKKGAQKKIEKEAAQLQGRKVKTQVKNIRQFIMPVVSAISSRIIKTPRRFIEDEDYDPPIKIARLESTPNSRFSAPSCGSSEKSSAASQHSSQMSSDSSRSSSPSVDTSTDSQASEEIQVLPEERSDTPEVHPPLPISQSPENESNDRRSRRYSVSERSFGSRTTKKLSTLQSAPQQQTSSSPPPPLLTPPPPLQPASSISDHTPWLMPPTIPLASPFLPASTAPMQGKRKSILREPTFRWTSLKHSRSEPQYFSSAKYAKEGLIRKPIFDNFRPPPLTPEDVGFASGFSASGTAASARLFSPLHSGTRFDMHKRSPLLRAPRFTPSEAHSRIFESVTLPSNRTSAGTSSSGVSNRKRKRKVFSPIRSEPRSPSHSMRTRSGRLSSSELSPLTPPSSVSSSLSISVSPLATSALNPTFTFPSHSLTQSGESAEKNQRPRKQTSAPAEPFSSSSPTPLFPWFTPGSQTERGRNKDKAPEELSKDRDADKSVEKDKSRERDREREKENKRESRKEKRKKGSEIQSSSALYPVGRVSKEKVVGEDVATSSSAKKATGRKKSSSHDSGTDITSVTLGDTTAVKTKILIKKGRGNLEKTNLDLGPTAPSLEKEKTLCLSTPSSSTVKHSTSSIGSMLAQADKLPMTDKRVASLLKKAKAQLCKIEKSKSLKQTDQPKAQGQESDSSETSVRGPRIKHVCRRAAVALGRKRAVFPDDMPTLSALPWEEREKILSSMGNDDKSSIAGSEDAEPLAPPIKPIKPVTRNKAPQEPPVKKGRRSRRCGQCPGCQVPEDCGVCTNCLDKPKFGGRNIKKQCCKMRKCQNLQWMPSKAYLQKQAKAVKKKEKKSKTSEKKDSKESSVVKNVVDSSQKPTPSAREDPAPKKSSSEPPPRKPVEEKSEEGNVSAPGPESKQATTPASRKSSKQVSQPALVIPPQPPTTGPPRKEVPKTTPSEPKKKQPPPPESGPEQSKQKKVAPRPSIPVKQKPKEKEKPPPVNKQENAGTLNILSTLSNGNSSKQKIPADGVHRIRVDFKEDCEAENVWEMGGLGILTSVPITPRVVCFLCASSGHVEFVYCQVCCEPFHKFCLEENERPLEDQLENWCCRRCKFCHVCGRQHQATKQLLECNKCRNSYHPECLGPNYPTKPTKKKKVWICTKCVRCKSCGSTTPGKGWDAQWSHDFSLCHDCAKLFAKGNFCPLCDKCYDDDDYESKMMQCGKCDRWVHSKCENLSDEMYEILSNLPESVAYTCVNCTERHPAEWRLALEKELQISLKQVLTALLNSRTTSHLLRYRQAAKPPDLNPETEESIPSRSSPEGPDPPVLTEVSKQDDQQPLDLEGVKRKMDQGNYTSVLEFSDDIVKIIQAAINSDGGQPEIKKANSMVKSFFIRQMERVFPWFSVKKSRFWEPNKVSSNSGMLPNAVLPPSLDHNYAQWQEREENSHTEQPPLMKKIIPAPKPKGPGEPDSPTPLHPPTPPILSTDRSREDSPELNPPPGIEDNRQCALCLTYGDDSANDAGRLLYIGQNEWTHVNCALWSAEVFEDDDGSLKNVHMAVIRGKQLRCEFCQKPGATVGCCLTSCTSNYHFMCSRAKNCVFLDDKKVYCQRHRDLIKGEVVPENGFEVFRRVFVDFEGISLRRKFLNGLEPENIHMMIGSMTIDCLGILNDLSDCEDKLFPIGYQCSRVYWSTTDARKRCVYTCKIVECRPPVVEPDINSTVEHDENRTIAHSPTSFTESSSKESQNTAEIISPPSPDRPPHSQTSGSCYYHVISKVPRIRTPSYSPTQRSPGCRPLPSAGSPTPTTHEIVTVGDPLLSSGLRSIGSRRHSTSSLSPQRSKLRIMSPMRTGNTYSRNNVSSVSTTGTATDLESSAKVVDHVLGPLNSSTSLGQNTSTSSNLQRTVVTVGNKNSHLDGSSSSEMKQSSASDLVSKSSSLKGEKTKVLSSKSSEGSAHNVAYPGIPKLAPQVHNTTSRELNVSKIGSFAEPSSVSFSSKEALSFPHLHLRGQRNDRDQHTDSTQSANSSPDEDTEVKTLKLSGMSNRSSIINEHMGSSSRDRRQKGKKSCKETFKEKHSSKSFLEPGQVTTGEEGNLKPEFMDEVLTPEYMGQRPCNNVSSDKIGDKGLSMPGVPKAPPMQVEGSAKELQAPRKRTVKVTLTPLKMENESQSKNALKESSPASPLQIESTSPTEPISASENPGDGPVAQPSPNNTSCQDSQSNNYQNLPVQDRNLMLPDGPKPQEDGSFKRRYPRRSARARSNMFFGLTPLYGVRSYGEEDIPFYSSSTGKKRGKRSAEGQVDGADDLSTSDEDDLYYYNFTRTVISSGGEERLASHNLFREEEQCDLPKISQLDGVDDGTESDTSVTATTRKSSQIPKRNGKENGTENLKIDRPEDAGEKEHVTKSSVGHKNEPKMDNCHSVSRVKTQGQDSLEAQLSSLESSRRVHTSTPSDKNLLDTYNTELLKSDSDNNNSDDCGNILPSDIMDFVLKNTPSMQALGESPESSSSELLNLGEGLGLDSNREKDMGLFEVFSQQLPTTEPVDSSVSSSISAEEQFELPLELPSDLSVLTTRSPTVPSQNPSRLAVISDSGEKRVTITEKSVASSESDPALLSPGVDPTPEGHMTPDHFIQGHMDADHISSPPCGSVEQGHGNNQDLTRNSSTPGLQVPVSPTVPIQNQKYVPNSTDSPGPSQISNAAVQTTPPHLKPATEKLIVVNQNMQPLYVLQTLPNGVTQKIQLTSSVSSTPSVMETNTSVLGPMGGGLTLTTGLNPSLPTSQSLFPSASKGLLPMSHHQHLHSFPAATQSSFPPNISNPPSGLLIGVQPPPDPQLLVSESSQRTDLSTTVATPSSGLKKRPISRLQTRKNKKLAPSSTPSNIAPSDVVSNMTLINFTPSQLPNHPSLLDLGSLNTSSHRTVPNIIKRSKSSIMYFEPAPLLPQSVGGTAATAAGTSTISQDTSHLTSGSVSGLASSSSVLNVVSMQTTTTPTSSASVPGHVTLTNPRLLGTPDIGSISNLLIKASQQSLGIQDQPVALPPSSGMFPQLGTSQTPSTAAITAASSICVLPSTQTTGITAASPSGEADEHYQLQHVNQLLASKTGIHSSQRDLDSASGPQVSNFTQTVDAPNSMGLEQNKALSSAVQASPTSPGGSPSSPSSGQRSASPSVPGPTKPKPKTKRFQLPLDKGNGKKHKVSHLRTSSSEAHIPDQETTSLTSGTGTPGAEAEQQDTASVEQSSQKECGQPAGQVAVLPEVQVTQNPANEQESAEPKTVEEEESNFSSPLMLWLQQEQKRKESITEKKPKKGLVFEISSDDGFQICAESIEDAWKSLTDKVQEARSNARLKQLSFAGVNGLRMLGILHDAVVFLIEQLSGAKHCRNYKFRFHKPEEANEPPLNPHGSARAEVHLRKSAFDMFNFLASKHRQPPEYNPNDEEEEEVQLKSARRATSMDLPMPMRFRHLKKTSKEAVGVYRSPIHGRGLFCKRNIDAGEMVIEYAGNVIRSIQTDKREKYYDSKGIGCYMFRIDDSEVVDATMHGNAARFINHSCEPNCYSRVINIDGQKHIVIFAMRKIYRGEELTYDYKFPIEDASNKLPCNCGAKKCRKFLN
T2 sequence (Q86Y97 whole entry): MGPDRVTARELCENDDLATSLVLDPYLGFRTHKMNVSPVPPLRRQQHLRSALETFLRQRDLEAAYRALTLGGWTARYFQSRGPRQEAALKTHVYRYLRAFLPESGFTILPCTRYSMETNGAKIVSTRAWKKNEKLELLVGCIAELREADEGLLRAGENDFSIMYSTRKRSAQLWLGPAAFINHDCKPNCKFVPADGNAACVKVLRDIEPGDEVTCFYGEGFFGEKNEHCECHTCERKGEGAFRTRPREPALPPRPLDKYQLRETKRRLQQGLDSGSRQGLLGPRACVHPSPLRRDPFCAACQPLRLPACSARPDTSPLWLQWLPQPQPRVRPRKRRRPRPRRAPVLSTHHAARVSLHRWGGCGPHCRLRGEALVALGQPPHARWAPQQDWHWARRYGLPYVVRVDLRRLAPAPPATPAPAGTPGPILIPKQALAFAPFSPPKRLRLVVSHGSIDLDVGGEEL

| SMILES | inhibition at 10 µM [1] [%] | inhibition at 100 µM [1] [%] | inhibition at 10 µM [2] [%] | inhibition at 100 µM [2] [%] | inhibition at 10 µM [3] [%] | inhibition at 100 µM [3] [%] | inhibition at 10 µM [4] [%] | inhibition at 100 µM [4] [%] | inhibition at 10 µM [5] [%] | inhibition at 100 µM [5] [%] | radioactive [3H]SAM methyltransferase assay with nucleosome substrate (Eurofins) [6] | inhibition at 10 µM [7] [%] | inhibition at 100 µM [8] [%] |
| --- | --- | --- | --- | --- | --- | --- | --- | --- | --- | --- | --- | --- | --- |
| COc1cc2c(NC3CCN(C)CC3)cc(-c3ccc(C)o3)nc2cc1OC1CC2(C1)CN(C)C2 [CM-986] | 2.9 | 30.5 | -69.8 | 42.1 | 79.1 | 87.7 | -7.2 | 2.7 | 55.9 | 98.8 | low micromolar range | > 50 |  |
| COc1cc2c(NC3CC4(CCN(C)CC4)C3)cc(-c3ccc(C)o3)nc2cc1OCCCN1CCCC1 [CM-679] | 8.6 | 48.8 | -52.4 |  | 85.7 | 92.9 | 11.9 | 0.3 | 81.7 | 98 | low micromolar range | > 50 | 84 |
| COc1cc2c(NC3CCN(C)CC3)cc(-c3ccc(C)o3)nc2cc1OCCCN1CCCC1 [CM-272] | -1 | 7.4 |  | 45.9 | 92 | 91.8 | -0.5 | 11.7 | 63.5 | 97.8 | low micromolar range | > 50 |  |
